PubChem BioAssay (NCI)
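1) Cells in 96-well plates. 2) Compound, 48 h, 5 concentrations. 3) Linear interpolation between surrounding doses. 4) Unreached endpoint = highest concentration. TGI denotes the concentration required for complete inhibition of growth.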

Experiments:
Experiment in all cases: NCI tumour cell line growth inhibition, 48 h
[1] = tested on: 786-0 renal
[2] = tested on: A498 renal
[3] = tested on: A549 NSCLC
[4] = tested on: ACHN renal
[5] = tested on: CAKI-1 renal
[6] = tested on: DLD-1 colon
[7] = tested on: DMS 114 small cell lung
[8] = tested on: DMS 273 small cell lung
[9] = tested on: EKVX NSCLC
[10] = tested on: HCC-2998 colon
[11] = tested on: HCT-116 colon
[12] = tested on: HCT-15 colon
[13] = tested on: HL-60(TB) leukemia
[14] = tested on: HOP-18 NSCLC
[15] = tested on: HOP-62 NSCLC
[16] = tested on: HOP-92 NSCLC
[17] = tested on: HT29 colon
[18] = tested on: IGROV1 ovarian
[19] = tested on: K-562 leukemia
[20] = tested on: KM12 colon
[21] = tested on: KM20L2 colon
[22] = tested on: LOX IMVI melanoma
[23] = tested on: LXFL 529 NSCLC
[24] = tested on: M14 melanoma
[25] = tested on: M19-MEL melanoma
[26] = tested on: MALME-3M melanoma
[27] = tested on: MOLT-4 leukemia
[28] = tested on: NCI-H226 lung
[29] = tested on: NCI-H23 lung
[30] = tested on: NCI-H460 lung
[31] = tested on: NCI-H522 lung
[32] = tested on: OVCAR-3 ovarian
[33] = tested on: OVCAR-5 ovarian
[34] = tested on: OVCAR-8 ovarian
[35] = tested on: RPMI-8226 leukemia
[36] = tested on: RXF 393 renal
[37] = tested on: RXF-631 renal
[38] = tested on: SF-268 CNS
[39] = tested on: SF-295 CNS
[40] = tested on: SF-539 CNS
[41] = tested on: SK-MEL-2 melanoma
[42] = tested on: SK-MEL-28 melanoma
[43] = tested on: SK-MEL-5 melanoma
[44] = tested on: SN12C renal
[45] = tested on: SNB-19 CNS
[46] = tested on: SNB-75 CNS
[47] = tested on: SNB-78 CNS
[48] = tested on: SW-620 colon
[49] = tested on: TK-10 renal
[50] = tested on: U251 CNS
[51] = tested on: UACC-257 melanoma
[52] = tested on: UACC-62 melanoma
[53] = tested on: UO-31 renal
[54] = tested on: XF 498 CNS
[55] = tested on: CCRF-CEM leukemia
[56] = tested on: COLO 205 colon
[57] = tested on: OVCAR-4 ovarian
[58] = tested on: SK-OV-3 ovarian

Measured: TGI

CCCc1nc(NC#N)nc(C(=O)Nc2ccccc2)c1CC
not listed: [55] | [56] | [57] | [58]
> 100 µM: all other assays above

C/C(Cc1ccccc1)=N\NC(N)=S
not listed: [1] | [3] | [5] | [6] | [9] | [10] | [11] | [15] | [17] | [20] | [26] | [28] | [31] | [32] | [33] | [34] | [38] | [39] | [41] | [43] | [48] | [49] | [51] | [53]
> 100 µM: all other assays above
